Data set [1] has as its system human embryonic stem cell derived neural stem cells (NSCs). The experiment in a line: Neural Stem Cell Proliferation Assay (neurogenesis assay, ATP levels by CellTiterGlo). The class given is cell-based. Particulars: 96 h, compound concentration at which 150% activity of control (100%) is reached, NSC proliferation by ATP level after 4 days incubation, dose response 8 μM to 8 nM. Summed up:
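Human ESC-derived NSCs (dual SMAD inhibition) seeded 4 h before compounds, 11-point 2-fold series 8 μM–8 nM; 4 days at 37 °C, 5% CO2. ATP by CellTiterGlo luminescence as cell-number proxy, response as % of media control (0.25% DMSO); EC150 = concentration giving 150% of control.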

The term melting point denotes the temperature, or range, at which the solid turns liquid. The compound `N#Cc1cc(-c2ccc(F)cc2F)c2c(c1)cc1n2CCNC1=O` [Example 173, 6-(2,4-Difluoro-phenyl)-1-oxo-1,2,3,4-tetrahydro-pyrazino[1,2-a]indole-8-carbonitrile] yielded a melting point of 292 °C. In data set [1], the EC (150% of control) came to 0.01 µM.

For `N#Cc1cc(-c2ccc(Cl)cc2F)c2c(c1)cc1n2CCNC1=O` [Example 174, 6-(4-Chloro-2-fluoro-phenyl)-1-oxo-1,2,3,4-tetrahydro-pyrazino[1,2-a]indole-8-carbonitrile], the melting point came out at 278 °C. Also, the EC (150% of control) in data set [1] is 0.019 µM.

Compound `N#Cc1cc(-c2ccc(Cl)cc2Cl)c2c(c1)cc1n2CCNC1=O` [Example 175, 6-(2,4-Dichloro-phenyl)-1-oxo-1,2,3,4-tetrahydro-pyrazino[1,2-a]indole-8-carbonitrile] displayed a melting point of 284.5 °C. Also, in data set [1], the EC (150% of control) was found to be 0.034 µM.

`N#Cc1ccc(-c2cc(C#N)cc3cc4n(c23)CCNC4=O)cc1` [Example 176, 6-(4-Cyano-phenyl)-1-oxo-1,2,3,4-tetrahydro-pyrazino[1,2-a]indole-8-carbonitrile] yielded a melting point of 363 °C. This compound registered an EC (150% of control) in data set [1] of 0.17 µM.

For `N#Cc1cc(-c2ccnc(F)c2)c2c(c1)cc1n2CCNC1=O` [Example 177, 6-(2-Fluoro-pyridin-4-yl)-1-oxo-1,2,3,4-tetrahydro-pyrazino[1,2-a]indole-8-carbonitrile], the melting point was 289 °C. The EC (150% of control) in data set [1] is 0.68 µM.

The compound `Cc1c2n(c3c(-c4ccc(Cl)c(F)c4)cc(C#N)cc13)CCNC2=O` [Example 178, 6-(4-Chloro-3-fluoro-phenyl)-10-methyl-1-oxo-1,2,3,4-tetrahydro-pyrazino[1,2-a]indole-8-carbonitrile] yielded a melting point of 260 °C. In addition, the EC (150% of control) in data set [1] is 0.048 µM.

Compound `Cc1c2n(c3c(-c4ccc(F)cc4F)cc(C#N)cc13)CCNC2=O` [Example 179, 6-(2,4-Difluoro-phenyl)-10-methyl-1-oxo-1,2,3,4-tetrahydro-pyrazino[1,2-a]indole-8-carbonitrile] had a melting point of 237 °C. Further, in data set [1], the EC (150% of control) is 0.013 µM.

Compound `Cc1c2n(c3c(-c4ccc(Cl)cc4F)cc(C#N)cc13)CCNC2=O` [Example 180, 6-(4-Chloro-2-fluoro-phenyl)-10-methyl-1-oxo-1,2,3,4-tetrahydro-pyrazino[1,2-a]indole-8-carbonitrile] returned a melting point of 270 °C. Also, the EC (150% of control) in data set [1] turned out to be 0.008 µM.

Regarding `O=C1NCCn2c1c(C(F)(F)F)c1cc(F)cc(-c3ccc(F)cc3)c12` [Example 181, 8-Fluoro-6-(4-fluoro-phenyl)-10-trifluoromethyl-3,4-dihydro-2H-pyrazino[1,2-a]indol-1-one], the melting point came to 193 °C. In addition, the EC (150% of control) in data set [1] was 0.62 µM.

Turning to `N#Cc1cc(-c2ccc(F)c(F)c2)c2c(c1)c(C(F)(F)F)c1n2CCNC1=O` [Example 182, 6-(3,4-Difluoro-phenyl)-1-oxo-10-trifluoromethyl-1,2,3,4-tetrahydro-pyrazino[1,2-a]indole-8-carbonitrile], the melting point came out at 217 °C. Besides, the EC (150% of control) in data set [1] amounted to 0.29 µM.

Compound `Cc1c2n(c3c(-c4ccc(Cl)s4)cc(F)cc13)CCNC2=O` [Example 183, 6-(5-Chloro-thiophen-2-yl)-8-fluoro-10-methyl-3,4-dihydro-2H-pyrazino[1,2-a]indol-1-one] gave a melting point of 185 °C. The EC (150% of control) in data set [1] is 0.19 µM.

Compound `Cc1c2n(c3c(-c4nnc(C(F)(F)F)s4)cc(F)cc13)CCNC2=O` [Example 184, 8-Fluoro-10-methyl-6-[5-(trifluoromethyl)-1,3,4-thiadiazol-2-yl]-3,4-dihydro-2H-pyrazino[1,2-a]indol-1-one] registered a melting point of 227 °C. The same compound had an EC (150% of control) in data set [1] of 1.11 µM.

Take `Cc1c2n(c3c(-c4ccc(C#N)s4)cc(F)cc13)CCNC2=O` [Example 185, 5-(8-Fluoro-10-methyl-1-oxo-3,4-dihydro-2H-pyrazino[1,2-a]indol-6-yl)thiophene-2-carbonitrile]: the melting point was determined as 249 °C. The compound also showed an EC (150% of control) in data set [1] of 0.11 µM.

The compound `Cc1c2n(c3c(-c4ncc(C(F)(F)F)s4)cc(F)cc13)CCNC2=O` [Example 186, 8-Fluoro-10-methyl-6-[5-(trifluoromethyl)-1,3-thiazol-2-yl]-3,4-dihydro-2H-pyrazino[1,2-a]indol-1-one] returned a melting point of 263 °C. The same compound came in with an EC (150% of control) in data set [1] of 0.33 µM.

On to `O=C1NCCn2c1c(C(F)(F)F)c1cc(Cl)cc(-c3ccc(Cl)cc3)c12` [Example 187, 8-Chloro-6-(4-chlorophenyl)-10-(trifluoromethyl)-3,4-dihydro-2H-pyrazino[1,2-a]indol-1-one], for which the melting point is 214 °C. This compound gave an EC (150% of control) in data set [1] of 0.088 µM.

As for `Cc1c2n(c3c(-c4ccco4)cc(F)cc13)CCNC2=O` [Example 188, 8-Fluoro-6-(furan-2-yl)-10-methyl-3,4-dihydro-2H-pyrazino[1,2-a]indol-1-one], the melting point stood at 236 °C. Moreover, the EC (150% of control) in data set [1] was 0.1 µM.

Compound `N#Cc1cc(-c2cc(F)c(F)c(F)c2)c2c(c1)cc1n2CCNC1=O` [Example 189, 1-Oxo-6-(3,4,5-trifluorophenyl)-3,4-dihydro-2H-pyrazino[1,2-a]indole-8-carbonitrile] had a melting point of 304.5 °C. The EC (150% of control) in data set [1] came out at 0.22 µM.

The compound `N#Cc1cc(-c2ccc(OC(F)(F)F)cc2)c2c(c1)cc1n2CCNC1=O` [Example 190, 1-Oxo-6-[4-(trifluoromethoxy)phenyl]-3,4-dihydro-2H-pyrazino[1,2-a]indole-8-carbonitrile] returned a melting point of 311.5 °C. This compound had an EC (150% of control) in data set [1] of 0.037 µM.

The compound `CS(=O)(=O)c1ccc(-c2cc(C#N)cc3cc4n(c23)CCNC4=O)cc1` [Example 191, 6-(4-Methylsulfonylphenyl)-1-oxo-3,4-dihydro-2H-pyrazino[1,2-a]indole-8-carbonitrile] gave a melting point of 329 °C. In data set [1], this compound came in with an EC (150% of control) of 0.24 µM.

In turn, `N#Cc1cc(-c2ccc(Cl)c(Cl)c2)c2c(c1)cc1n2CCNC1=O` [Example 192, 6-(3,4-Dichlorophenyl)-1-oxo-3,4-dihydro-2H-pyrazino[1,2-a]indole-8-carbonitrile] showed a melting point of 330.5 °C. In data set [1], this compound had an EC (150% of control) of 0.13 µM.

Consider `N#Cc1cc(-c2cccc(Cl)c2)c2c(c1)cc1n2CCNC1=O` [Example 193, 6-(3-Chlorophenyl)-1-oxo-3,4-dihydro-2H-pyrazino[1,2-a]indole-8-carbonitrile], for which the melting point came to 241.5 °C. In data set [1], this compound had an EC (150% of control) of 0.32 µM.

As for `N#Cc1cccc(-c2cc(C#N)cc3cc4n(c23)CCNC4=O)c1` [Example 194, 6-(3-Cyanophenyl)-1-oxo-3,4-dihydro-2H-pyrazino[1,2-a]indole-8-carbonitrile], the melting point was 253 °C. In data set [1], this compound showed an EC (150% of control) of 1.08 µM.

Consider `N#Cc1cc(-c2cccc(C(F)(F)F)c2)c2c(c1)cc1n2CCNC1=O` [Example 195, 1-Oxo-6-[3-(trifluoromethyl)phenyl]-3,4-dihydro-2H-pyrazino[1,2-a]indole-8-carbonitrile], for which the melting point was determined as 279.5 °C. This compound also gave an EC (150% of control) in data set [1] of 1.4 µM.

Regarding `Cc1c2n(c3c(-c4ccc(F)c(F)c4)cc(C#N)cc13)CCCNC2=O` [Example 196, 7-(3,4-Difluorophenyl)-11-methyl-1-oxo-2,3,4,5-tetrahydro-[1,4]diazepino[1,2-a]indole-9-carbonitrile], the melting point worked out at 278 °C. Further, the EC (150% of control) in data set [1] amounted to 0.086 µM.

Regarding `Cc1c2n(c3c(-c4ccc(C(F)(F)F)cc4)cc(C#N)cc13)CCCNC2=O` [Example 197, 11-Methyl-1-oxo-7-[4-(trifluoromethyl)phenyl]-2,3,4,5-tetrahydro-[1,4]diazepino[1,2-a]indole-9-carbonitrile], the melting point was 252 °C. For the same compound, the EC (150% of control) in data set [1] stood at 0.14 µM.

On to `Cc1c2n(c3c(-c4ccc(F)cc4)cc(C#N)cc13)CCCNC2=O` [Example 198, 7-(4-Fluorophenyl)-11-methyl-1-oxo-2,3,4,5-tetrahydro-[1,4]diazepino[1,2-a]indole-9-carbonitrile], for which the melting point stood at 278 °C. The same compound registered an EC (150% of control) in data set [1] of 0.033 µM.

In the case of `Cc1c2n(c3c(-c4ccc(Cl)cc4)cc(C#N)cc13)CCCNC2=O` [Example 199, 7-(4-Chlorophenyl)-11-methyl-1-oxo-2,3,4,5-tetrahydro-[1,4]diazepino[1,2-a]indole-9-carbonitrile], the melting point was determined as 298 °C. In data set [1], the EC (150% of control) was determined as 0.053 µM.

`Cc1c2n(c3c(-c4ccc(C#N)cc4)cc(C#N)cc13)CCCNC2=O` [Example 200, 7-(4-Cyanophenyl)-11-methyl-1-oxo-2,3,4,5-tetrahydro-[1,4]diazepino[1,2-a]indole-9-carbonitrile] showed a melting point of 314 °C. In data set [1], this compound came in with an EC (150% of control) of 0.041 µM.

`Cc1c2n(c3c(-c4ccc(OC(F)(F)F)cc4)cc(C#N)cc13)CCCNC2=O` [Example 201, 11-Methyl-1-oxo-7-[4-(trifluoromethoxy)-phenyl]-2,3,4,5-tetrahydro-[1,4]diazepino[1,2-a]indole-9-carbonitrile] displayed a melting point of 218 °C. Also, the EC (150% of control) in data set [1] is 0.048 µM.

Consider `N#Cc1cc(-c2ccc(F)c(F)c2F)c2c(c1)cc1n2CCNC1=O` [Example 202, 1-Oxo-6-(2,3,4-trifluorophenyl)-3,4-dihydro-2H-pyrazino[1,2-a]indole-8-carbonitrile], for which the melting point was 294 °C. In addition, in data set [1], the EC (150% of control) is 0.046 µM.

For the compound `N#Cc1cc(-c2ccc(F)nc2)c2c(c1)cc1n2CCNC1=O` [Example 203, 6-(6-Fluoropyridin-3-yl)-1-oxo-3,4-dihydro-2H-pyrazino[1,2-a]indole-8-carbonitrile], the melting point came out at 268 °C. In data set [1], the EC (150% of control) came out at 0.36 µM.

For the origin of these results see patent US9284321B2, “Piperazino[1,2-a]indol-1-ones and [1,4]diazepino[1,2-a]indol-1-one” (Hoffmann-La Roche Inc., priority 2012, dated 2016).
